Read-outs that look alike come from different tables or passages of the source.
How the values were obtained:
[1] = Abstinence syndrome (bodyweight decrease) on the day after drug withdrawal following 4 weeks of subcutaneous dosing; type: in vivo, male rats of Wistar strain; set-up: key: +++: severe decrease (about 5% decrease); ++: moderate decrease; +: mild decrease; -: no decrease; conditions: male Wistar rats, 20 mg/kg/day for 4 weeks, subcutaneous twice a day
Protocol: Compound for 4 weeks) syndrome
Note: Groups of male rats of Wistar strain (bodyweight, 150 g), each grou
consisting of 20 male rats, were subcutaneously given the test compound
twice a day for 4 consecutive weeks. On the next day after drug
withdrawal, the bodyweight was measured. The symbols have the following
meanings: +++, severe decrease (about 5% decrease); ++, moderate decrease
+, mild decrease; -, no decrease. The marked decrease is taken as an […]

[2] = Subcutaneous writhing test (antagonism of the syndrome produced by intraperitoneal acetic acid); type: in vivo, mice; conditions: Mus musculus, sc
Protocol: […]. Note: The test was based on the specific antagonism of the test compound to the typical syndrome produced by intraperitoneal injection of 0.6% aqueous acetic acid. The syndrome was characterized by intermittent contractions of the abdomen, twisting and turning of the trunk and extension of the hind legs. A group of 5 mice was used for each dose level. The test compound was administered subcutaneously 20 minutes before the injection of acetic acid. […] The ED50 value was calculated according to the Litchfeld-Wilcoxon's method.

[3] = Long term animal tests for addiction / physical dependency (daily oral or subcutaneous administration for over one month); type: in vivo; conditions: rats, orally or subcutaneously every day for over one month
From the text: On account of this addiction liability, these analgesics are severely restricted in a therapeutic use.

[4] = cited from earlier work
[5] = mice, subcutaneous, 20 minutes before 0.6% acetic acid i.p., Litchfeld-Wilcoxon's method, read-out: ED50

For CC(=O)Oc1ccc2c(c1)C1(C)CCN(CCC#N)C(C2)C1C (stereo not drawn) [2'-Acetoxy-2-(β-cyanoethyl)-5,9-dimethyl-6,7-benzomorphan], the Abstinence syndrome [1] was “-”, the ED50 [2, 5] was 0.5 mg/kg and the “addiction / physical dependency” value [3] was “do not show addiction in long term animal tests”.
For CC1C2Cc3ccc(O)cc3C1(C)CCN2C (centres unmarked) [2'-Hydroxy-2,5,9-trimethyl-6,7-benzomorphan, reference compound], the Abstinence syndrome [1] is given as “++”, the ED50 [2, 5] is given as 3.5 mg/kg and the addiction liability ([4]; prior art compounds) is given as “show an addiction liability”. The analgesic activity ([4]; prior art, U.S. Pat. No. 3,138,603) was “potent analgesic activity”.
For CC1C2Cc3ccc(O)cc3C1(C)CCN2CCC#N (stereo not drawn) [2'-Hydroxy-2-(β-cyanoethyl)-5,9-dimethyl-6,7-benzomorphan], the Abstinence syndrome [1] was “-”, the ED50 [2, 5] was 0.9 mg/kg and the “addiction / physical dependency” value [3] was “do not show addiction in long term animal tests”.
For CC12CCN(CCC#N)C(Cc3ccc(O)cc31)C2 (stereo not drawn) [2'-Hydroxy-2-(β-cyanoethyl)-5-methyl-6,7-benzomorphan], the Abstinence syndrome [1] was “-”, the ED50 [2, 5] was 2.9 mg/kg and the “addiction / physical dependency” value [3] was “do not show addiction in long term animal tests”.
For CC1C2Cc3ccc(O)cc3C1(C)CCN2CCCC#N (centres unmarked) [2'-Hydroxy-2-(γ-cyanopropyl)-5,9-dimethyl-6,7-benzomorphan], the Abstinence syndrome [1] was “-” and the ED50 [2, 5] was 3 mg/kg.
For CCC1C2Cc3ccc(O)cc3C1(C)CCN2CCCC#N (centres unmarked) [2'-Hydroxy-2-(γ-cyanopropyl)-5-methyl-9-ethyl-6,7-benzomorphan], the Abstinence syndrome [1] was “-” and the ED50 [2, 5] was 1.5 mg/kg.
With CCC1C2Cc3ccc(O)cc3C1(CC)CCN2CCCC#N (centres unmarked) [2'-hydroxy-2-(γ-cyanopropyl)-5,9-diethyl-6,7-benzomorphan] the Abstinence syndrome [1] was “-” and the ED50 [2, 5] was 0.3 mg/kg.
For CCC12CCN(CCCC#N)C(Cc3ccc(O)cc31)C2C (centres unmarked) [2'-hydroxy-2-(γ-cyanopropyl)-5-ethyl-9-methyl-6,7-benzomorphan], the Abstinence syndrome [1] was “-”, the ED50 [2, 5] was 0.19 mg/kg and the “addiction / physical dependency” value [3] was “do not show addiction in long term animal tests”.
In the case of CC12CCN(CCC#N)C(Cc3ccccc31)C2 (stereo not drawn) [2-(β-Cyanoethyl)-5-methyl-6,7-benzomorphan], the Abstinence syndrome [1] is reported as “-”.
With COc1ccc2c3c1O[C@H]1[C@@H](O)C=C[C@H]4[C@@H](C2)N(C)CC[C@@]341 [Methylmorphine, reference compound] the ED50 [2, 5] was 14 mg/kg.
For CN1CC[C@]23c4c5ccc(O)c4O[C@H]2[C@@H](O)C=C[C@H]3[C@H]1C5 [Morphine, reference compound], the ED50 [2] was 1.4 mg/kg.
In the case of CC(C)=CCN1CCC2(C)c3cc(O)ccc3CC1C2C (centres unmarked) [Pentazocine, 2'-hydroxy-2-(3"-methyl-2"-butenyl)-5,9-dimethyl-6,7-benzomorphan, reference compound], the ED50 [2, 5] is reported as 17.5 mg/kg.
